According to paper PMC5626781, “A Potent Tartrate Resistant Acid Phosphatase Inhibitor to Study the Function of TRAP in Alveolar Macrophages” (Scientific Reports, 2017):

What was measured:
recombinant human TRAP5a = target: T1, recombinant human TRAP5a (Homo sapiens, UniProt P13686); test: TRAP activity assay (PNPP) with recombinant TRAP5a; type: biochemical; conditions: pH 5, 30 min 37 °C, mean ± standard error, n = 3
T1 construct: made in house
T1 sequence (P13686 22-325): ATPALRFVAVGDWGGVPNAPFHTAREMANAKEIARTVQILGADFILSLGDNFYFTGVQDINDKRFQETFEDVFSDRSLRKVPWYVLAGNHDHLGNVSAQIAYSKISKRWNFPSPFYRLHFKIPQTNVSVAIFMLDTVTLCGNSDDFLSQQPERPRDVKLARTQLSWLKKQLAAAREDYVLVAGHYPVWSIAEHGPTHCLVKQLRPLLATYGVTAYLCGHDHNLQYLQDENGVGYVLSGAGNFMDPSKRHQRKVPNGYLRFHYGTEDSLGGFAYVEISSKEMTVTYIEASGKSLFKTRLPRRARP
Description: (§1) Recombinant unspecified human TRAP was purchased from R&D (Minneapolis, USA). Recombinant human TRAP5a and 5b were produced and purified according to a protocol based on several sources[70]–[72] using an ÄKTApurifier™ 10 FPLC system (GE Healthcare, Danderyd, Sweden) as previously described.
(§2) Inhibitor dilutions were prepared in acetate buffer from freshly prepared stock solutions (10 mM in DMSO). Recombinant unspecified TRAP (1.25 ng/ml, pH 4.5), TRAP5a (150 ng/mL, pH 5) or TRAP5b (150 ng/mL, pH 5.8) were incubated at 37 °C for 30 minutes with PNPP solution [10 mM PNPP, 200 mM sodium acetaat, 300 mM potassium chloride) at the indicated pH at a 1:1 ratio and increasing concentrations of NaAuCl4 (range 0–40 μM) or Au compounds (range 0–5.1 μM). To stop the reaction, 1M NaOH was added and absorption at 410 nm, with 490 nm as a reference value, was measured using a spectrophotometer.
(§3) The inhibitory effects of gold compounds were calculated as the ratio of absorbance between the treated and untreated wells. The IC50 values were calculated using nonlinear curve fitting with a variable slope in Graphpad Prism 6 (Graphpad Software, la Jolla, USA). An average IC50 of three independent experiments was calculated.

recombinant human TRAP5b = recombinant human TRAP5b (Homo sapiens, UniProt P13686); test: TRAP activity assay (PNPP) with recombinant TRAP5b; type: biochemical; conditions: pH 5.8, 30 min 37 °C, mean ± standard error, n = 3
Description: as §1, §2, §3

RAW264.7 macrophages = test: Live cell imaging of macrophage migration on osteopontin-coated wells; type: cell-based, mouse; conditions: AubipyOMe 80 nM
Description: Briefly, RAW264.7 macrophages were plated on osteopontin-coated (10 μg/ml, R&D) Lab-tek chamber slides (Nunc, Hatfield, USA). Cells were incubated with or without RANKL (200 ng/ml) for 48 hours to induce TRAP activity or not[75], followed by labeling with carboxyfluorescein diacetate succinimidyl ester (CFSE, Invitrogen, Life Technologies Europe BV, Bleiswijk, The Netherlands) to visualize cells for live cell imaging using a confocal microscope (Solamere Nipkow Confocal Live Cell Imaging system, Solamere Technology Group, Salt lake city, USA). Cell movement was tracked overnight in the presence of 1% zymosan solution (Sigma-Aldrich), to stimulate cell movement, and with or without TRAP inhibitor AubipyOMe (80 nM). Pictures were taken every 10 min and were transformed into movies with Image J and Imaris x64 (Bitplane, Zurich, Switzerland) software.
IC50 of four independent experiments was calculated.
Transwell experiment to assess macrophage migration
Migration of RAW264.7 macrophages was assessed using a transwell-culturing system with inserts (Sigma-Aldrich) coated with osteopontin (10 µg/ml, R&D). Bovine collagen-coated inserts (Advanced Biometrix, Carlsbad, USA) were used as a matrix control. […] The number of cells migrated to the lower well, including dead cells, was calculated relative to control cells and individual experiments were done at least six times. […]

COc1ccnc(-c2cc(OC)ccn2)c1.F[P-](F)(F)(F)(F)F.[Cl][Au+][Cl] [AubipyOMe, [Au(4,4′-dimethoxy-2,2′-bipyridine)Cl2][PF6]]
IC50 (recombinant human TRAP5a): 1.3 ± 0.5 µM | IC50 (recombinant human TRAP5b): 1.8 ± 0.3 µM | migratory behavior of RANKL-pretreated macrophages, live cell tracking (RAW264.7 macrophages; RANKL 200 ng/ml 48 h): inhibited this migratory behavior | migratory behavior of control cells, live cell tracking (RAW264.7 macrophages; no RANKL): did not affect the migratory behavior
